The structures appear in SMILES notation. Activity calls are given as the source filed them.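 Rule for the calls: active = fitted curve rises past 40% activation at or below the highest valid tested dose; inconclusive = flat fit between 30% and 70%, or poor curve fit; inactive = the rest, including signal falling instead of rising.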

One assay deals with Luciferin 4-monooxygenase (Photinus pyralis) (UniProt P08659). The assay is described as follows: compounds altering purified luciferase luminescence – biochemical, CellTiter-Glo luminescence, dry powder samples, counter-screen for NLG project, dose response (AID 720562). The conditions noted are these: 1 h.
Sequence of Luciferin 4-monooxygenase (Photinus pyralis) (P08659 whole entry, looked up): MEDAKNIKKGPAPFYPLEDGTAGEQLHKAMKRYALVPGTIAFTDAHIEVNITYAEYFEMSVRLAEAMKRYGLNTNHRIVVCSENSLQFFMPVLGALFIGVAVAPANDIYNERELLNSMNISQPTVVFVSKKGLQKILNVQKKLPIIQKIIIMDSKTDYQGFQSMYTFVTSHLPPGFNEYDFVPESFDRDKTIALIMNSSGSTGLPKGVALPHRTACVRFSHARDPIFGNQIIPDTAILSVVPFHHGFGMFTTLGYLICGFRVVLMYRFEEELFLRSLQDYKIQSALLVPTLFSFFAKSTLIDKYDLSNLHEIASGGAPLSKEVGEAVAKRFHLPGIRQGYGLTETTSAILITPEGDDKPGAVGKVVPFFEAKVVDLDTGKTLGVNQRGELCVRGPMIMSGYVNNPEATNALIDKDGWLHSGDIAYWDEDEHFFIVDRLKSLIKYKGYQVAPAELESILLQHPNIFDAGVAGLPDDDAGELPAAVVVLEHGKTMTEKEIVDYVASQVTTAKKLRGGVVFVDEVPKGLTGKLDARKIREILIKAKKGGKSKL
Regarding `CC(=O)N1CCC(=O)c2cc3ccccc3cc21`, the AC40 was 4.65 µM.

Regarding `O=C(N/N=C/c1ccc(Cl)cc1)c1sccc1OCc1ccc(F)cc1`, the AC40 is > 30 µM (inactive).

Regarding `COc1ccc(CSc2nnc(-c3ccccc3)o2)cc1`, the AC40 was > 30 µM (inactive).

As to `CCCOC(=O)c1[nH]c2c(c1C)C(=O)CC(c1cccs1)C2` (configuration not stated), the AC40 was 10 µM.

On to `COc1cc(-c2nnc(SCC3(c4ccc(Br)cc4)OCCO3)o2)cc(OC)c1OC`, for which the AC40 was > 30 µM (inactive).

On to `O=C(Cc1ccccc1)c1nnc(-c2ccccc2)o1`, for which the AC40 is > 30 µM (inactive).

Turning to `O=C1CCNc2cc3ccccc3cc21`, the AC40 was 28.2 µM.

For the compound `COC(=O)c1cn(C(=O)c2ccc(OC)cc2)c2ccccc12`, the AC40 is 12.5 µM.

Consider `CC(=O)N[C@H]1[C@@H](O[C@@H]2OC(C[C@@H](O)C3O[C@@H](n4ccc(=O)[nH]c4=O)[C@H](O)[C@@H]3O)[C@H](O)[C@H](O)[C@H]2NC(=O)/C=C/CCCCCCCCCCC(C)C)O[C@H](CO)[C@@H](O)[C@@H]1O` (some centres not stated), for which the AC40 is 13.1 µM.

For `COc1ccc2c(COC(=O)c3cccc(S(=O)(=O)NCC(C)C)c3)cc(=O)oc2c1`, the AC40 was 1.49 µM.

Consider `c1ccc(CSc2nnc(-c3ccccc3)o2)cc1`, for which the AC40 is 20.9 µM.

With `CCN(CC)CCOc1ccc2c(c1)C(=NNC(=O)c1ccccn1)c1cc(OCCN(CC)CC)ccc1-2`, the AC40 is > 30 µM (inactive).

Turning to `COc1cc(C(=O)NCCOc2cc(C)cc(C)c2)cc(OC)c1OC`, the AC40 was 24.5 µM.

`CCN(CC)CCC(=O)Nc1cccc2c1C(=O)c1ccccc1C2=O`: the AC40 was 14.7 µM.

Regarding `Cc1ccc(/C=N/NC(=O)C2COc3ccccc3O2)s1` (configuration not stated), the AC40 was > 30 µM (inactive).

Take `COc1ccc(-c2nnc(SCc3ccccc3)o2)cc1`: the AC40 was > 30 µM (inactive).

`CCCNS(=O)(=O)c1cccc(C(=O)OCc2cc(=O)oc3cc(OC)ccc23)c1`: the AC40 is 6.81 µM.

The same assay, now with this note: 1 h, at 7.5 µM (top of the series).
As for `CCn1c2ccccc2c2cc(NC(=O)c3cc(OC)c(OC)c(OC)c3)ccc21`, the luminescence change, positive = activation was -35.8% (inactive).

Take `CCOc1ccc(S(=O)(=O)NCc2ccccn2)cc1NC(=O)c1ccccc1F`: the luminescence change, positive = activation is -35.8% (inactive).

On to `O=C1CCN(Cc2ccccc2)c2cc3ccccc3cc21`, for which the luminescence change, positive = activation is 10.8% (inactive).

The same assay, now with this note: 1 h, at 30 µM (top of the series).
For the compound `CCCCOc1ccccc1C1CC(=O)NC2=C1C(=O)CCC2` (configuration not stated), the luminescence change, positive = activation is -27% (inactive).

As to `COc1ccccc1-c1nnc(SCc2ccccc2)o1`, the luminescence change, positive = activation was -10.8% (inactive).

With `COc1cccc(N2CCN(C(=O)c3ccc(CS(=O)c4ccc(C)cc4)o3)CC2)c1` (configuration not stated), the luminescence change, positive = activation is 8.11% (inactive).

In the case of `Cc1cnc(NC(=O)c2cc(S(=O)(=O)N(C)C)ccc2N2CCCC2)s1`, the luminescence change, positive = activation was 8.11% (inactive).

Turning to `COc1ccccc1CSc1nnc(-c2ccccc2)o1`, the luminescence change, positive = activation is 19.8% (inactive).

For the compound `Brc1ccc(CSc2nnc(-c3ccccc3)o2)cc1`, the luminescence change, positive = activation is 21.6% (inactive).

For `COc1ccc(NC(=O)C(=O)c2cn(CC(=O)N3CCCC3)c3ccccc23)cc1`, the luminescence change, positive = activation is -20.3% (inactive).

With `CCC1=Nc2cc(C(=O)NCCCOC)ccc2Sc2ccccc21`, the luminescence change, positive = activation was -11.5% (inactive).

Consider `C/C(=N\NC(=O)c1c([N+](=O)[O-])c(C)nn1C)c1ccc(NC(=O)C2CCCC2)cc1`, for which the luminescence change, positive = activation was -2.7% (inactive).

Take `Cc1ccc(CCC(=O)Nc2ncc(Cc3cc(Cl)ccc3Cl)s2)o1`: the luminescence change, positive = activation was -24.3% (inactive).

In the case of `CCOC(=O)COc1cccc2c(=O)n(CC(=O)NCc3ccccc3)ccc12`, the luminescence change, positive = activation was -4.73% (inactive).

With `Cc1ccc(Oc2ccc(S(=O)(=O)N3CCOCC3)cc2C(N)=O)c(-n2nc3ccccc3n2)c1`, the luminescence change, positive = activation is -22.3% (inactive).

In the case of `CC(=O)c1ccc(Oc2cc(C)nc(-n3nc(C)cc3C)n2)cc1`, the luminescence change, positive = activation is -10.8% (inactive).

In the case of `COc1cc(Nc2c3c(nc4ccccc24)CCCC3)cc(OC)c1OC`, the luminescence change, positive = activation was -14.9% (inactive).

`Cc1cc(C)nc(/N=C(\N)Nc2ccc(OCc3ccccc3)cc2)n1`: the luminescence change, positive = activation is 36.9% (inactive).

With `Cc1cc(NC(=O)CSc2nc(-c3ccco3)cc(C(F)(F)F)n2)no1`, the luminescence change, positive = activation is -25.7% (inactive).

Regarding `Cc1cc(=O)[nH]c(N/N=C/c2cc(C)n(CC(F)(F)F)c2C)n1`, the luminescence change, positive = activation was 36% (inactive).

For `COc1ccccc1OCC(=O)NNC(=O)c1ccoc1C`, the luminescence change, positive = activation was -17.6% (inactive).

As for `Cc1cccc(C)c1OCCNC(=O)C(=O)NCc1ccco1`, the luminescence change, positive = activation is -39.9% (inactive).

Consider `Nc1nc(=S)c2ncn([C@@H]3O[C@H](CO)[C@@H](O)[C@H]3O)c2[nH]1`, for which the luminescence change, positive = activation was 97.3% (inactive).

For the compound `CCOc1ccc(NC(=O)c2cc(OC)nc3ccccc23)cc1`, the luminescence change, positive = activation is -0.676% (inactive).

Consider `Cc1cc(C)cc(C(=O)N2CC(=O)Nc3ccccc32)c1`, for which the luminescence change, positive = activation was -9.46% (inactive).

Consider `Cc1[nH][nH]c(=O)c1C(c1ccc(-c2ccc(Cl)c(Cl)c2)o1)c1c(C)[nH][nH]c1=O`, for which the luminescence change, positive = activation was 7.43% (inactive).

In the case of `CC(=O)c1cccc(NC(=O)CSc2ncc(C(=O)Nc3ccccc3)c(=O)n2C)c1`, the luminescence change, positive = activation is -7.43% (inactive).

`CCN(CC)CCCNc1nc2cc(OC)c(OC)cc2c2nc(-c3ccccc3)nn12`: the luminescence change, positive = activation is -10.1% (inactive).

Consider `CCOC(=O)c1ccc(Oc2cc(C)nc(SC)n2)cc1`, for which the luminescence change, positive = activation was 16.2% (inactive).

In the case of `Cc1ccc(C(=O)c2cc([N+](=O)[O-])ccc2N2CCOCC2)cc1C`, the luminescence change, positive = activation is 19.8% (inactive).

(Values after PubChem BioAssay AID720562 (Broad Institute, 2013).)
